In PubChem BioAssay AID330 (DTP/NCI, 2004):
Toxic doses and inconclusive results are not listed. The calls were made as follows: active = survival T/C of 150% or more; inactive = T/C below 125% in these data.

Tested on: P388 leukemia ip, CD2F1 mice, survival T/C
Test: NCI In Vivo Anticancer Drug Screen. Data for tumor model P388 Leukemia (intraperitoneal) in CD2F1 (CDF1) mice
Settings: endpoint: median survival time, higher = longer survival
Summary of the method: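 Mice carrying the transplanted tumor received test compound or vehicle. Survival was recorded in each group, and the value is the treated-group measurement divided by that of the vehicle-treated control group.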

[1] = dose: 12.5 mg/kg/injection, schedule: Q04DX003 (ip), vehicle: saline with Tween-80
[2] = dose: 60.0 mg/kg/injection, schedule: Q01DX005 (ip), vehicle: saline
[3] = dose: 120.0 mg/kg/injection, schedule: Q01DX005 (ip), vehicle: saline
[4] = dose: 240.0 mg/kg/injection, schedule: Q01DX005 (ip), vehicle: saline
[5] = dose: 100.0 mg/kg/injection, schedule: Q04DX003 (ip), vehicle: saline with Tween-80
[6] = dose: 200.0 mg/kg/injection, schedule: Q04DX003 (ip), vehicle: saline with Tween-80
[7] = dose: 400.0 mg/kg/injection, schedule: Q04DX003 (ip), vehicle: saline with Tween-80

Measured: T/C

CC[N+](CC)(CC)CC
inactive: dose: 3.13 mg/kg/injection, schedule: Q04DX003 (ip), vehicle: saline with Tween-80 100 % of control | [1] 118 % of control

C=CC1OCCC(C)O1 (stereo not drawn)
inactive: [2] 99 % of control | [3] 100 % of control | [4] 97 % of control

CN(C)c1nc(N/N=C\C(O)C(O)C(O)C(O)CO)nc(N(C)C)n1 (stereo not drawn)
inactive: [5] 112 % of control | [6] 103 % of control | [7] 102 % of control

NNC(=O)CCCCl
inactive: [2] 111 % of control | [3] 110 % of control

OCc1cnccc1Br
inactive: [2] 99 % of control | [3] 100 % of control | [4] 99 % of control

N#Cc1cc(Br)ccc1N
inactive: dose: 50.0 mg/kg/injection, schedule: Q01DX009 (ip), vehicle: saline 105 % of control | dose: 100.0 mg/kg/injection, schedule: Q01DX009 (ip), vehicle: saline 107 % of control | dose: 200.0 mg/kg/injection, schedule: Q01DX009 (ip), vehicle: saline 96 % of control

CC(C)CCN=C(N)N=C(N)N
inactive: [2] 100 % of control | [3] 109 % of control

CN1C(=O)C(O)N=C(c2ccccc2)c2cc(Cl)ccc21 (stereo not drawn)
inactive: dose: 50.0 mg/kg/injection, schedule: Q01DX009 (ip), vehicle: saline with Tween-80 101 % of control | dose: 100.0 mg/kg/injection, schedule: Q01DX009 (ip), vehicle: saline with Tween-80 105 % of control | dose: 200.0 mg/kg/injection, schedule: Q01DX009 (ip), vehicle: saline with Tween-80 117 % of control

ClC(Cl)=Nc1ccccc1
inactive: dose: 25.0 mg/kg/injection, schedule: Q01DX009 (ip), vehicle: Klucel (hydroxypropylcellulose) (HPC) 103 % of control | dose: 50.0 mg/kg/injection, schedule: Q01DX009 (ip), vehicle: Klucel (hydroxypropylcellulose) (HPC) 103 % of control | dose: 100.0 mg/kg/injection, schedule: Q01DX009 (ip), vehicle: Klucel (hydroxypropylcellulose) (HPC) 110 % of control | dose: 200.0 mg/kg/injection, schedule: Q01DX009 (ip), vehicle: Klucel (hydroxypropylcellulose) (HPC) 93 % of control

CCN(CC)C(=O)Nc1ccc(OCC(O)CNC(C)(C)C)c(C(C)=O)c1 (stereo not drawn)
inactive: dose: 50.0 mg/kg/injection, schedule: Q01DX009 (ip), vehicle: water 114 % of control | dose: 100.0 mg/kg/injection, schedule: Q01DX009 (ip), vehicle: water 102 % of control | dose: 200.0 mg/kg/injection, schedule: Q01DX009 (ip), vehicle: water 105 % of control

CCOc1ccc(CC)cc1Cc1ccc(OC)cc1
inactive: dose: 50.0 mg/kg/injection, schedule: Q01DX005 (ip), vehicle: saline with Tween-80 108 % of control | dose: 100.0 mg/kg/injection, schedule: Q01DX005 (ip), vehicle: saline with Tween-80 117 % of control | dose: 200.0 mg/kg/injection, schedule: Q01DX005 (ip), vehicle: saline with Tween-80 113 % of control

Nc1nnc2cc(Cl)ccc2n1
inactive: dose: 25.0 mg/kg/injection, schedule: Q01DX005 (ip), vehicle: Klucel (hydroxypropylcellulose) (HPC) 98 % of control | dose: 50.0 mg/kg/injection, schedule: Q01DX005 (ip), vehicle: Klucel (hydroxypropylcellulose) (HPC) 96 % of control | dose: 100.0 mg/kg/injection, schedule: Q01DX005 (ip), vehicle: Klucel (hydroxypropylcellulose) (HPC) 98 % of control | dose: 200.0 mg/kg/injection, schedule: Q01DX005 (ip), vehicle: Klucel (hydroxypropylcellulose) (HPC) 98 % of control

CC[n+]1c(/C=C/c2ccc(N(C)C)cc2)ccc2ccccc21
inactive: dose: 0.19 mg/kg/injection, schedule: Q01DX009 (ip), vehicle: saline 100 % of control | dose: 0.39 mg/kg/injection, schedule: Q01DX009 (ip), vehicle: saline 86 % of control | dose: 0.78 mg/kg/injection, schedule: Q01DX009 (ip), vehicle: saline 114 % of control | dose: 1.56 mg/kg/injection, schedule: Q01DX009 (ip), vehicle: saline 96 % of control

O=S(=O)(Oc1cccc(C(F)(F)F)c1)c1cccc(C(F)(F)F)c1
inactive: dose: 6.25 mg/kg/injection, schedule: Q01DX009 (ip), vehicle: saline with Tween-80 100 % of control | dose: 6.25 mg/kg/injection, schedule: Q04DX003 (ip), vehicle: saline with Tween-80 100 % of control | dose: 12.5 mg/kg/injection, schedule: Q01DX009 (ip), vehicle: saline with Tween-80 91 % of control | [1] 100 % of control | dose: 25.0 mg/kg/injection, schedule: Q01DX009 (ip), vehicle: saline with Tween-80 91 % of control | dose: 25.0 mg/kg/injection, schedule: Q04DX003 (ip), vehicle: saline with Tween-80 100 % of control

Cc1nc2c(I)cccc2c(=O)n1CC(=O)NNC(N)=S
inactive: [5] 101 % of control | [6] 97 % of control | [7] 100 % of control
